Test system: VRE
Settings: preliminary testing

Substance: 2′-N-acyldecanoyl-glucosyl vancomycin neoglycoside [compound 5]
- activity against VRE: significant activity

Reference: patent US8710182B2, “Rapid glycopeptide optimization via neoglycosylation” (Wisconsin Alumni Research Foundation, priority 2006, dated 2014)
